Experimental data taken from patent US20110319360A1, “Method of including apoptosis/Cell death in leukemia cell using a purine nucleoside analogue” (U.S. Department of Veterans Affairs, priority 2010, published 2011).
Where two headings read alike, the source gives them in different places.

Experiments:
[1] = system: normal PBMCs; test: MTS cytotoxicity assay on PBMCs from normal donors; format: cell-based, human; details: for EC50: Homo sapiens, PBMC, read-out: ED50 (μM), PBMC
Experimental: For toxicity studies involving normal blood cells, normal volunteers were enrolled in an IRB-approved protocol for blood collection. PBMCs were isolated from heparin-anticoagulated blood by ficoll-Hypaque density gradient centrifugation.
(§1) 2.5×10^5 CLL cells were incubated in triplicate or quadruplicate in a 96-well tissue culture plate (Costar, Corning, N.Y.) with serial dilutions of LMP-420, fludarabine, and/or recombinant TNF-alpha (R&D Systems, Minneapolis, Minn.) in Hybridoma serum free media (SFM) (GIBCO/Invitrogen, Carlsbad, Calif.) containing 10% heat-inactivated fetal bovine serum (FBS) (Sigma) at 37° C. with 5% CO2. After 72 hours, 20 μl CellTiter 96® AQueous One Solution Cell Proliferation Assay (Promega, Madison, Wis.) MTS (3-(4,5 dimethylthiazol-2-yl)-5-(3-carboxymethoxyphenyl-2-(4-sulfophenyl)-2H-tetrazolium) reagent was added to each well and the absorbance was read at 490 nm on a Thermomax microplate reader (Molecular Devices, Sunnyvale, Calif.). We calculated fractional cytotoxicity as performed previously (Reference 12), comparing absorbance at 490 nm from treated cells to control cells incubated with media alone.
(§2) The concentration effective at killing 50% of CLL cells compared to media alone (ED50) was calculated when 50% fractional cytotoxicity occurred within the range of serial dilutions tested (Reference 12). If the ED50 fell below or above this range, it was set to either the lowest or the highest concentration tested, respectively, for the purposes of statistical analyses and graphical representation.

[2] = system: normal PBMCs; test: [3H]-thymidine proliferation assay, mitogen-stimulated normal PBMCs; format: cell-based, human; details: Homo sapiens, PBMC, 96 h
Experimental: CLL cells (2×10^5 cells/well) were cultured in quadruplicate in a volume of 200 μl in 96-well tissue culture plates for 96 hours with 1 μM CpG-oligodeoxynucleotides (ODN) DSP30 (Reference 14) (Midland Certified Reagent Company, Midland, Tex.) and 100 units/ml IL-2 (R&D Systems) in the presence or absence of drug. As controls, cells were treated with media without DSP30/IL-2. Cells were incubated with 1 μCi/well [methyl-^3H]-thymidine (specific activity 6.7 Ci/mmol, PerkinElmer, Waltham, Mass., USA) for 14-18 hours prior to harvesting onto glass-fiber filters using a semi-automated cell harvester. [^3H]-thymidine incorporation was measured as counts per minute (cpm) using a Tri-Carb 2100 timed-resolved liquid scintillation counter (PerkinElmer). The same protocol was utilized for proliferation assays with normal PBMCs, with the exception that growth was stimulated by treatment with 10 μg/ml Phytohemagglutinin-P (PHA, Sigma), 5 μg/ml concanavalin A (ConA, Sigma), 2 μg/ml pokeweed mitogen (PWM, Sigma), 25 ng/ml muromonab-CD3 (α-CD3, Ortho Pharmaceuticals, Raritan, N.J.), or 50 ng/ml phorbol myristate acetate (PMA, Sigma) plus 1 μg/ml ionomycin (iono, Sigma) for 96 hours. Proliferation is reported as percent of control (drug-treated cpm/control-treated cpm×100%).

[3] = system: CD19-positive B-cell; test: Annexin V apoptosis of normal B-lymphocytes in PBMCs; format: cell-based, human; details: 72 hours
Experimental: (§3) PBMCs were cultured at 10^6 cells/ml in a 12-well tissue culture plate. Cells were treated for 72 hours with vehicle control or drug for 72 hours, then harvested as above for staining. PBMCs were resuspended at 2×10^5 cells/tube in 100 μl buffer (HBSS, 0.5% bovine serum albumin, 0.1% sodium azide) and incubated for 30 min with CD3-FITC or CD19-FITC antibodies according to the manufacturer's protocol (BD Biosciences). Cells were then incubated with PE-annexin V and 7-AAD (BD Biosciences) in annexin V binding buffer (BD Biosciences) for 15 minutes prior to analysis of apoptosis on the Guava EasyCyte™ Plus system.

[4] = system: CLL cells; test: MTS cytotoxicity assay on primary CLL cells; format: cell-based; details: Homo sapiens, CLL cell, 72 h
Experimental: On the same day that heparin-anticoagulated venous blood was collected from participants, CLL cells were purified by methods described previously (Reference 11). Briefly, CLL cells were isolated from whole blood using the RosetteSep® B-cell enrichment cocktail (Stem Cell Technologies, Vancouver, BC, Canada) together with ficoll-Hypaque density gradient centrifugation. This method yielded CLL cell purity of greater than 95% CD5^+CD19^+ B-cells.
as §1, §2

[5] = system: CD34+ hematopoietic progenitor cells (myeloid colonies); test: Colony formation assay, myeloid colonies; format: cell-based, human; details: Homo sapiens, 336 h, read-out: mean IC50 for normal myeloid colony formation
Experimental: (§4) CD34^+ hematopoietic progenitor cells were isolated from PBMCs from two healthy donors using the CD34 Microbead Kit (Miltenyi Biotec, Auburn, Calif.). 10^3 CD34^+-enriched cells were cultured in a 35 mm culture plate (1000 cells/plate) with or without LMP-420 or fludarabine in 1.1 ml Human Methylcellulose Complete Media (R&D Systems) according to the manufacturer's protocol. Plates were incubated for 14 days at 37° C. in humidified 5% CO2. Each treatment group was tested in triplicate. Colonies on plates were scored by two independent observers, blinded to the treatment groups, by microscopic evaluation under 10× and 20× power. Colonies were categorized as being of either erythroid or myeloid lineage.

[6] = system: CD34+ hematopoietic progenitor cells (erythroid colonies); test: Colony formation assay, erythroid colonies; format: cell-based, human; details: Homo sapiens, 336 h, read-out: mean IC50 for normal erythroid colony formation
Experimental: as §4

[7] = system: CD3-positive T-cell; test: Annexin V apoptosis of normal T-lymphocytes in PBMCs; format: cell-based, human; details: 72 hours
Experimental: as §3

[8] = mean, PBMCs from healthy blood donors (n = 3-6)
[9] = Con A, 96 hours, read-out: IC50 for suppression of mitogen-induced proliferation
[10] = PWM, 96 hours, read-out: IC50 for suppression of mitogen-induced proliferation
[11] = read-out: IC50 for suppression of mitogen-induced proliferation, Con A, 96 hours
[12] = read-out: IC50 for suppression of mitogen-induced proliferation, PHA, 96 hours
[13] = read-out: IC50 for suppression of mitogen-induced proliferation, PMA/Iono, 96 hours
[14] = read-out: IC50 for suppression of mitogen-induced proliferation, PWM, 96 hours
[15] = read-out: IC50 for suppression of mitogen-induced proliferation, α-CD3, 96 hours

| Compound | Therapeutic Index (PBMC ED50/CLL ED50) [1] | EC50 [1, 8] [µM] | IC50 [2, 9] [µM] | IC50 [2, 10] [µM] | EC50 [1] [µM] | IC50 [2, 11] [µM] | IC50 [2, 12] [µM] | IC50 [2, 13] [µM] | IC50 [2, 14] [µM] | IC50 [2, 15] [µM] | other results |
| --- | --- | --- | --- | --- | --- | --- | --- | --- | --- | --- | --- |
| 4-hydroperoxycyclophosphamide [Cyclophosphamide/4-HC] | 1.7 |  |  |  |  |  |  |  |  |  |  |
| Nc1nc(Cl)nc2c1ncn2[C@H]1C[C@H](O)[C@@H](CO)O1 [Cladribine, cladribine] | 10 | 0.1 | 0.15 | 0.1 |  |  |  |  |  |  |  |
| Nc1nc(F)nc2c1ncn2[C@@H]1O[C@H](COP(=O)(O)O)[C@@H](O)[C@@H]1O [Fludarabine, fludarabine phosphate, reference compound] | 2.6 | 3.1 | < 3 | < 3 |  |  |  |  |  |  | apoptosis in normal B-cells ([3]; 0.4 μM): caused significant apoptosis; average percent drug-specific apoptosis, B-cells ([3]; 1 μM, n=3): 70%; EC50 ([4]; read-out: Median ED50 of fludarabine, 62 nM of LMP-420 added, 72 hours, 21 patient samples): 0.252 µM; EC50 ([4]; read-out: Median ED50 of fludarabine, 250 nM of LMP-420 added, 72 hours, 21 patient samples): 0.125 µM; EC50 ([4]; read-out: Median ED50 of fludarabine, no LMP-420 added, 72 hours, 21 patient samples): 0.978 µM; IC50 [5]: 1 µM; IC50 [6]: 5 µM; apoptosis in normal T-cells ([7]; 0.4 μM): caused significant apoptosis; average percent drug-specific apoptosis, T-cells ([7]; 1 μM, n=3): 81%; IC50 ([2]; PHA, 96 hours, read-out: IC50 for suppression of mitogen-induced proliferation): < 3 µM; IC50 ([2]; PMA/Iono, 96 hours, read-out: IC50 for suppression of mitogen-induced proliferation): 0.8 µM; IC50 ([2]; α-CD3, 96 hours, read-out: IC50 for suppression of mitogen-induced proliferation): < 3 µM |
| O=C(O)CCCc1ccc(N(CCCl)CCCl)cc1 [Chlorambucil] | 22.6 |  |  |  | 67.7 | 12 | 11 | 7 | 7.5 | 12.5 |  |
| Cn1c(CCCC(=O)O)nc2cc(N(CCCl)CCCl)ccc21 [Bendamustine, bendamustine] | 29.2 |  |  |  | 146 | 16 | 17 | 35 | 14 | 20 |  |
